Assay results: patent publication US8937077B2, “Bicyclic diamines as janus kinase inhibitors” (Merck Sharp & Dohme Corp., priority 2010, dated 2015)

Molecular target: T1, Jak1 (Homo sapiens, UniProt P23458)
T1 construct: using a recombinant purified GST-tagged catalytic domain for each enzyme; GST; purchased Invitrogen M4290
Experiment: Jak Biochemical HTRF Assay (Jak1)
Conditions: IC50 class, recombinant GST-tagged catalytic domain, read-out: Jak1 activity
Method in brief: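 Recombinant GST-tagged Jak1 catalytic domain was preincubated with compound and peptide substrate for 30 min at room temperature, and the reaction was then started with ATP and run 120 min. Buffer contained 2 mM DTT and 0.05% BSA. Read-out was HTRF (665/615 nm) with Eu-pY20 antibody and streptavidin-Dylight, and IC50 values came from 4-parameter fits of percent inhibition.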

T1 sequence (P23458 875-1153 limits assumed): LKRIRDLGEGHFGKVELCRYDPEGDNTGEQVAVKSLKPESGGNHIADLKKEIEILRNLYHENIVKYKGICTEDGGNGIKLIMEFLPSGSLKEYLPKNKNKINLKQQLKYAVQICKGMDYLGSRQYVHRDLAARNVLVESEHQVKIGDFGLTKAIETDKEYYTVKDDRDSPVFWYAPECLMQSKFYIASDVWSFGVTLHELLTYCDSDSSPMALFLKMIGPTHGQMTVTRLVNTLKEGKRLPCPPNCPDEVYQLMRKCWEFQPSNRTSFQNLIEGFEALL

SMILES	IC50 [nM]
COC(=O)c1ccc(CCOC(=O)N2CCC[C@@H]3[C@H]2CCN3c2ncnc3[nH]ccc23)cc1 [Example 3-21, 2-[4-(methoxycarbonyl)phenyl]ethyl (3aR,7aR)-1-(7H-pyrrolo[2,3-d]pyrimidin-4-yl)octahydro-4H-pyrrolo[3,2-b]pyridine-4-carboxylate]	10 to 100
COC(=O)c1ccc(CCC(=O)N2CCC[C@@H]3[C@H]2CCN3c2ncnc3[nH]ccc23)cc1 [Example 26, methyl 4-{3-oxo-3-[(3aR,7aR)-1-(7H-pyrrolo[2,3-d]pyrimidin-4-yl)octahydro-4H-pyrrolo[3,2-b]pyridine-4-yl]propyl}benzoate]	10 to 100
O=C(OCc1ccccc1)N1CCCC2C1CCN2c1ncnc2[nH]ccc12 (racemic) [Example 1, (3aS,7aS and 3aR,7aR) benzyl 1-(7H-pyrrolo[2,3-d]pyrimidin-4-yl)octahydro-4H-pyrrolo[3,2-b]-pyridine-4-carboxylate]	10 to 100
O=C(OCCc1ccccc1)N1CCCC2C1CCN2c1ncnc2[nH]ccc12 (centres unmarked) [Example 3-8, 2-phenylethyl 1-(7H-pyrrolo[2,3-d]pyrimidin-4-yl)octahydro-4H-pyrrolo[3,2-b]pyridine-4-carboxylate]	10 to 100
CO[C@@](C(=O)N1CCC[C@@H]2[C@H]1CCN2c1ncnc2[nH]ccc12)(c1ccccc1)C(F)(F)F [Example 19, (2R)-3,3,3-trifluoro-2-methoxy-2-phenyl-1-[(3aR,7aR)-1-(7H-pyrrolo[2,3-d]pyrimidin-4-yl)octahydro-4H-pyrrolo[3,2-b]pyridine-4-yl]propan-1-one]	10 to 100
NC(=O)c1ccc(COC(=O)N2CCC[C@@H]3[C@H]2CCN3c2ncnc3[nH]ccc23)cc1 [Example 7-2, 4-carbamoylbenzyl (3aR,7aR)-1-(7H-pyrrolo[2,3-d]pyrimidin-4-yl)octahydro-4H-pyrrolo[3,2-b]pyridine-4-carboxylate]	10 to 100
CN1CCC(COC(=O)N2CCC[C@@H]3[C@H]2CCN3c2ncnc3[nH]ccc23)CC1 [Example 3-42, (1-methylpiperidin-4-yl)methyl (3 aR,7 aR)-1-(7H-pyrrolo[2,3-d]pyrimidin-4-yl)octahydro-4H-pyrrolo[3,2-b]pyridine-4-carboxylate]	100 to 1000
COC(=O)c1ccc(COC(=O)N2CCCC3C2CCN3c2ncnc3[nH]ccc23)cc1 (centres unmarked) [Example 3-25, 4-(methoxycarbonyl)benzyl 1-(7H-pyrrolo[2,3-d]pyrimidin-4-yl)octahydro-4H-pyrrolo[3,2-b]pyridine-4-carboxylate]	1 to 10
CC(C)(C)OC(=O)NCc1ccc(COC(=O)N2CCC[C@@H]3[C@H]2CCN3c2ncnc3[nH]ccc23)cc1 [Example 8-1, 4-{[(tert-butoxycarbonyl)amino]methyl}benzyl(3aR,7aR)-1-(7H-pyrrolo[2,3-d]pyrimidin-4-yl)octahydro-4-pyrrolo[3,2-b]pyridine-4-carboxylate]	100 to 1000
CN(C)CCNC(=O)c1ccc(COC(=O)N2CCC[C@@H]3[C@H]2CCN3c2ncnc3[nH]ccc23)cc1 [Example 7-4, 4-{[2-(dimethylamino)ethyl]carbamoyl}benzyl (3aR,7aR)-1-(7H-pyrrolo[2,3-d]pyrimidin-4-yl)octahydro-4H-pyrrolo[3,2-b]pyridine-4-carboxylate]	100 to 1000
CN(C)C(=O)c1ccc(COC(=O)N2CCC[C@@H]3[C@H]2CCN3c2ncnc3[nH]ccc23)cc1 [Example 7-1, 4-(dimethylcarbamoyl)benzyl (3aR,7aR)-1-(7H-pyrrolo[2,3-d]pyrimidin-4-yl)octahydro-4H-pyrrolo[3,2-b]pyrindine-4-carboxylate]	100 to 1000
c1ccc(-c2nnc(N3CCCC4C3CCN4c3ncnc4[nH]ccc34)o2)cc1 [Example 31, (3aS,7aS and 3aR,7aR) 4-[4-(5-phenyl-1,3,4-oxadiazol-2-yl)octahydro-1H-pyrrolo[3,2-b]pyridin-1-yl]-7H-pyrrolo[2,3-d]pyrimidine]	100 to 1000
c1nc(N2CCC3NCCC[C@@H]32)c2cc[nH]c2n1 (single isomer, unassigned) [Enantiomer 1]	100 to 1000
CN1CCN(CCOC(=O)N2CCC[C@@H]3[C@H]2CCN3c2ncnc3[nH]ccc23)CC1 [Example 3-41, 2-(4-methylpiperazin-1-yl)ethyl(3aR,7aR)-1-(7H-pyrrolo[2,3-d]pyrimidin-4-yl)octahydro-4H-pyrrolo[3,2-b]pyridine-4-carboxylate]	100 to 1000
O=C(OCc1ccncc1)N1CCCC2C1CCN2c1ncnc2[nH]ccc12 (centres unmarked) [Example 3-13, pyridin-4-ylmethyl 1-(7H-pyrrolo[2,3-d]pyrimidin-4-yl)octahydro-4H-pyrrolo[3,2-b]-pyridine-4-carboxylate]	10 to 100
CC1CCN(Cc2ccccc2)C2CCN(c3ncnc4[nH]ccc34)C12 [Example 21, (3aS,7S,7aS and 3aR,7R,7aR) 4-(4-benzyl-7-methyloctahydro-1H-pyrrolo[3,2-b]pyridin-1-yl)-7H-pyrrolo[2,3-d]pyrimidine]	10 to 100
O=C(OCc1cccnc1)N1CCC[C@@H]2[C@H]1CCN2c1ncnc2[nH]ccc12 [Example 3-19, pyridin-3-ylmethyl (3aR,7aR)-1-(7H-pyrrolo[2,3-d]pyrimidin-4-yl)octahydro-4H-pyrrolo[3,2-b]pyridine-4-carboxylate]	100 to 1000

The remaining lines, values ahead:

IC50 [nM]	SMILES
10 to 100	O=C(CN1CCc2ccccc2C1)N1CCC[C@@H]2[C@H]1CCN2c1ncnc2[nH]ccc12 [Example 29-36, 2-{2-oxo-2-[(3aR,7aR)-1-(7H-pyrrolo[2,3-d]pyrimidin-4-yl)octahydro-4H-pyrrolo[3,2-b]pyridin-4-yl]ethyl}-1,2,3,4-tetrahydroisoquinoline]
100 to 1000	CCC(=O)N1CCC[C@@H]2[C@H]1CCN2c1ncnc2[nH]ccc12 (single isomer, unassigned) [Example 29-7]
10 to 100	O=C(c1ccc2ccccc2c1)N1CCC[C@@H]2[C@H]1CCN2c1ncnc2[nH]ccc12 [Example 29-26, 4-[(3aR,7aR)-4-(naphthalen-2-ylcarbonyl)octahydro-1H-pyrrolo[3,2-b]pyridin-1-yl]-7H-pyrrolo[2,3-d]pyrimidine]
10 to 100	O=C(c1cccnc1)N1CCC[C@@H]2[C@H]1CCN2c1ncnc2[nH]ccc12 [Example 29-10, 4-[(3aR,7aR)-4-(pyridin-3-ylcarbonyl)octahydro-1H-pyrrolo[3,2-b]pyridin-1-yl]-7H-pyrrolo[2,3-d]pyrimidine]
100 to 1000	COCC(=O)N1CCC[C@@H]2[C@H]1CCN2c1ncnc2[nH]ccc12 (single isomer, unassigned) [Example 29-8]
10 to 100	N#Cc1ccc(C(=O)N2CCC[C@@H]3[C@H]2CCN3c2ncnc3[nH]ccc23)cc1 [Example 29-29, 4-{[(3aR,7aR)-1-(7H-pyrrolo[2,3-d]pyrimidin-4-yl)octahydro-4H-pyrrolo[3,2-b]pyridin-4-yl]carbonyl}benzonitrile]
100 to 1000	O=C(c1cc2ccsc2[nH]1)N1CCC[C@@H]2[C@H]1CCN2c1ncnc2[nH]ccc12 [Example 29-48, 4-[(3aR,7aR)-4-(6H-thieno[2,3-b]pyrrol-5-ylcarbonyl)octahydro-1H-pyrrolo[3,2-b]pryidin-1-yl]7H-pyrrolo[2,3-d]pyrimidine]
10 to 100	O=C(c1cccc2ccccc12)N1CCC[C@@H]2[C@H]1CCN2c1ncnc2[nH]ccc12 [Example 29-20, 4-[(3aR,7aR)-4-(naphthalen-1-ylcarbonyl)octahydro-1H-pyrrolo[3,2-b]pyridin-1-yl]-7H-pyrrolo[2,3-d]pyrimidine]
10 to 100	O=C(c1cn2cccnc2n1)N1CCC[C@@H]2[C@H]1CCN2c1ncnc2[nH]ccc12 [Example 29-27, 4-[(3aR,7aR)-4-(imidazo[1,2-a]pyrimidin-2-ylcarbonyl)octahydro-1H-pyrrolo[3,2-b]pyridin-1-yl]-7H-pyrrolo[2,3-d]pyrimidine]
10 to 100	O=C(c1ccsc1)N1CCC[C@@H]2[C@H]1CCN2c1ncnc2[nH]ccc12 [Example 29-32, 4-[(3aR,7aR)-4-(thiophen-3-ylcarbonyl)octahydro-1H-pyrrolo[3,2-b]pyridin-1-yl]-7H-pyrrolo[2,3-d]pyrimidine]
10 to 100	O=C(c1ncoc1C1CC1)N1CCC[C@@H]2[C@H]1CCN2c1ncnc2[nH]ccc12 [Example 29-41, 4-{(3aR,7aR)-4-[(5-cyclopropyl-1,3-oxazol-4-yl)carbonyl]octahydro-1H-pyrrolo[3,2-b]pyridin-1-yl}-7H-pyrrolo[2,3-d]pyrimidine]
10 to 100	O=C1NCc2ccc(C(=O)N3CCC[C@@H]4[C@H]3CCN4c3ncnc4[nH]ccc34)cc21 [Example 29-62, 6-{[(3aR,7aR)-1-(7H-pyrrolo[2,3-d]pyrimidin-4-yl)octahydro-4H-pyrrolo[3,2-b]pyridin-4-yl]carbonyl}-2,3-dihydro-1H-isoindol-1-one]
100 to 1000	O=C(c1cccc2cccnc12)N1CCC[C@@H]2[C@H]1CCN2c1ncnc2[nH]ccc12 [Example 29-51, 8-{[(3aR,7aR)-1-(7H-pyrrolo[2,3-d]pyrimidin-4-yl)octahydro-4H-pyrrolo[3,2-b]pyridin-4-yl]carbonyl}quinoline]

Same assay, conditions: Jak1 activity, IC50 class, recombinant GST-tagged catalytic domain

SMILES	IC50 [nM]
CC1CCN(C(=O)OCc2ccccc2)C2CCN(c3ncnc4[nH]ccc34)C12 [Example 20, (3aS,7S,7aS and 3aR,7R,7aR) benzyl 7-methyl-1-(7H-pyrrolo[2,3-d]pyrimidin-4-yl)octahydro-4H-pyrrolo[3,2-b]pyridine-4-carboxylate]	10 to 100
O=C(c1cc2ccccc2[nH]1)N1CCC[C@@H]2[C@H]1CCN2c1ncnc2[nH]ccc12 [Example 29-19, 4-[(3aR,7aR)-4-(1H-indol-2-ylcarbonyl)octahydro-1H-pyrrolo[3,2-b]pyridin-1-yl]-7H-pyrrolo[2,3-d]pyrimidine]	100 to 1000

Same assay, conditions: Representative IC50 values, recombinant GST-tagged catalytic domain, 31.8 μM ATP

SMILES	IC50 [nM]
CC1CCN(C(=O)OCc2ccccc2)C2CCN(c3ncnc4[nH]ccc34)C12 [Example 20, (3aS,7S,7aS and 3aR,7R,7aR) benzyl 7-methyl-1-(7H-pyrrolo[2,3-d]pyrimidin-4-yl)octahydro-4H-pyrrolo[3,2-b]pyridine-4-carboxylate]	12

Same assay, conditions: recombinant GST-tagged catalytic domain, 31.8 μM ATP, read-out: Representative IC50 values

IC50 [nM]	SMILES
30	O=C(CN1CCc2ccccc2C1)N1CCC[C@@H]2[C@H]1CCN2c1ncnc2[nH]ccc12 [Example 29-36, 2-{2-oxo-2-[(3aR,7aR)-1-(7H-pyrrolo[2,3-d]pyrimidin-4-yl)octahydro-4H-pyrrolo[3,2-b]pyridin-4-yl]ethyl}-1,2,3,4-tetrahydroisoquinoline]
131	CN1CCN(CCOC(=O)N2CCC[C@@H]3[C@H]2CCN3c2ncnc3[nH]ccc23)CC1 [Example 3-41, 2-(4-methylpiperazin-1-yl)ethyl(3aR,7aR)-1-(7H-pyrrolo[2,3-d]pyrimidin-4-yl)octahydro-4H-pyrrolo[3,2-b]pyridine-4-carboxylate]
